Assay results as given in patent US4309559A, “Sulphonamides useful as pesticides” (FBC Limited, priority 1977, dated 1982).

Columns and labels:
Type in all cases: in vivo
[1] = tested on: Ryegrass (Lolium perenne); assay: Soil incorporation (attaclay/sand dust), growth regulatory or herbicidal effects, ryegrass; settings: 504 h, 21 days, 0=no effect, read-out: growth regulatory or herbicidal effect score; for pest or weed control at 26 µg/mL: soil incorporation 26 ppm, 100=complete kill
Summary of the method: (§1)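 Active ingredient formulated as attaclay/sand dust and mixed into John Innes I potting compost at 26 or 130 ppm w/v (about 11.2 or 56 kg a.i./ha cultivated to 5 cm). Seeds sown in treated soil, grown 21 days at 22° C, 65-85% RH, 14 h light at 13,000 lux; visual score 0-100 versus untreated control.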

[2] = tested on: Linseed (Linum usitatissimum); assay: Soil incorporation (attaclay/sand dust), growth regulatory or herbicidal effects, linseed; settings: 504 h, 21 days, 0=no effect, read-out: growth regulatory or herbicidal effect score; for pest or weed control at 26 µg/mL: soil incorporation 26 ppm, 100=complete kill
Summary of the method: as §1

[3] = tested on: Barnyardgrass (Echinochloa crus-galli); assay: Pre-emergence soil surface spray, barnyardgrass; settings: soil surface spray 2.8 kg/ha, 21 days, 0=no effect, 100=complete kill
Description: (§2) Seeds of the plant species listed below were sown in John Innes I potting compost in aluminium pans, 19 cm long×9.5 cm wide×5.0 cm high, one species per pan. The soil surface was then sprayed with a compound listed below, formulated as a solution in 1:1 by volume aqueous acetone except for the compound of Example 44 which was formulated as an aqueous suspension containing 1000 parts per million of the wetting agent Lissapol NX (nonylphenol/ethylene oxide condensate). Each compound was applied at a rate of 2.8 kg of active ingredient per hectare in 450 liters of spray liquid per hectare. The pans were then watered, and placed in a controlled environment room (22° C., relative humidity 65-85%, 14 hours per day artificial illumination at 17,000 lux) for 21 days. The plants were then visually assessed for any growth regulatory or herbicidal effects. All differences from an untreated control were scored on a scale from 0-100, where 0 signifies no effect and 100 signifies complete kill.

[4] = tested on: Maize (Zea mays); assay: Soil incorporation (attaclay/sand dust), growth regulatory or herbicidal effects, maize; settings: 504 h, 21 days, 0=no effect, read-out: growth regulatory or herbicidal effect score; for plant injury at 26 µg/mL: soil incorporation 26 ppm, 100=complete kill
Summary of the method: as §1

[5] = tested on: Mustard (Sinapis alba); assay: Soil incorporation (attaclay/sand dust), growth regulatory or herbicidal effects, mustard; settings: 504 h, 21 days, 0=no effect, read-out: growth regulatory or herbicidal effect score; for pest or weed control at 26 µg/mL: soil incorporation 26 ppm, 100=complete kill
Summary of the method: as §1

[6] = tested on: Oats (Avena sativa); assay: Soil incorporation (attaclay/sand dust), growth regulatory or herbicidal effects, oats; settings: 504 h, 21 days, 0=no effect, read-out: growth regulatory or herbicidal effect score; for plant injury at 26 µg/mL: soil incorporation 26 ppm, 100=complete kill
Summary of the method: as §1

[7] = tested on: Barley (Hordeum vulgare); assay: Post-emergence foliar spray of monocotyledons, barley; settings: foliar spray 2.8 kg/ha, 14 days, 0=no effect, 100=complete kill
Procedure: (§3) Seeds of the monocotyledon species listed below were sown in anodised aluminium pans, 19 cm long×9.5 cm wide×5.0 cm deep, containing John Innes I potting compost. They were then watered and placed in a controlled environment room (22° C.; 65-85% relative humidity; 14 hours per day artificial illumination at 17,000 lux). 14 days after sowing, the seedlings were given a foliar spray of the compound of Example 44, formulated as an aqueous suspension together with 2000 ppm of the wetting agent Lissapol NX. The dosage rate was adjusted to be 2.8 kg active ingredient in 450 liters per hectare. After a further 14 days in the controlled environment room, the plants were visually assessed for any growth regulatory or herbicidal effect. All differences from an untreated control were scored on a scale from 0-100 where 0 signifies no effect and 100 signifies complete kill.
(§4) The compounds listed below were tested according to the procedure of Example 66 but including rice (Oryza sativa) as an additional test species.

[8] = tested on: Peas (Pisum sativum); assay: Soil incorporation (attaclay/sand dust), growth regulatory or herbicidal effects, peas; settings: Lathyrus oleraceus, 504 h, 21 days, 0=no effect, read-out: growth regulatory or herbicidal effect score; for pest or weed control at 26 µg/mL: soil incorporation 26 ppm, 100=complete kill
Summary of the method: as §1

[9] = tested on: Wild Oat (Avena fatua); assay: Pre-emergence soil surface spray, wild oat; settings: soil surface spray 2.8 kg/ha, 21 days, 0=no effect, 100=complete kill
Description: as §2

[10] = tested on: Barley (Hordeum vulgare); assay: Pre-emergence soil surface spray, barley; settings: soil surface spray 2.8 kg/ha, 21 days, 0=no effect, 100=complete kill
Description: as §2

[11] = tested on: Crabgrass (Digitaria sanguinalis); assay: Pre-emergence soil surface spray, crabgrass; settings: soil surface spray 2.8 kg/ha, 21 days, 0=no effect, 100=complete kill
Description: as §2

[12] = tested on: Rice (Orysae sotiva); assay: Pre-emergence soil surface spray, rice; settings: soil surface spray 2.8 kg/ha, 21 days, 0=no effect, 100=complete kill
Description: as §2

[13] = tested on: Wheat (Triticum aestivum); assay: Pre-emergence soil surface spray, wheat; settings: soil surface spray 2.8 kg/ha, 21 days, 0=no effect, 100=complete kill
Description: as §2

[14] = tested on: Blackgrass (Alopecurus myosuroides); assay: Pre-emergence soil surface spray, blackgrass; settings: soil surface spray 2.8 kg/ha, 21 days, 0=no effect, 100=complete kill
Description: as §2

[15] = tested on: Wheat (Triticum aestivum); assay: Post-emergence foliar spray of monocotyledons, wheat; settings: foliar spray 2.8 kg/ha, 14 days, 0=no effect, 100=complete kill
Procedure: as §3, §4

[16] = tested on: Barnyardgrass (Echinochloa crus-galli); assay: Post-emergence foliar spray of monocotyledons, barnyardgrass; settings: foliar spray 2.8 kg/ha, 14 days, 0=no effect, 100=complete kill
Procedure: as §3, §4

[17] = tested on: Oat (Avena sativa); assay: Post-emergence foliar spray, herbicidal/growth regulant response, oat; settings: 168 h, foliar spray 11.2 kg/ha, 7 days, 0=no effect, 100=complete kill, read-out: herbicidal or growth regulant response index
Summary of the method: (§5)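 Post-emergence treatment at 11.2 kg/ha (two-week-old seedlings; 22° C., 65-85% relative humidity). Seven-day visual rating relative to untreated plants, where 100 means complete kill.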

[18] = tested on: Ryegrass (Lolium perenne); assay: Post-emergence foliar spray, herbicidal/growth regulant response, ryegrass; settings: 168 h, foliar spray 11.2 kg/ha, 7 days, 0=no effect, 100=complete kill, read-out: herbicidal or growth regulant response index
Summary of the method: as §5

[19] = tested on: Sugarbeet (Beta vulgaris); assay: Post-emergence foliar spray, herbicidal/growth regulant response, sugarbeet; settings: 168 h, foliar spray 11.2 kg/ha, 7 days, 0=no effect, 100=complete kill, read-out: herbicidal or growth regulant response index
Summary of the method: as §5

[20] = tested on: Mustard; assay: Soil incorporation (I), mustard; settings: I soil incorporation 6.5 ppm, 21 days, 0=no effect, 100=complete suppression
Description: (§6) Each of the compounds listed below was formulated as: […]
(§7) (I) an attaclay/sand dust and incorporated in John Innes I potting compost at a rate equivalent to 6.5 and 3.25 parts per million weight/volume of active ingredient to soil and placed in anodised aluminium pans, 19 cm long×9.5 cm wide×5.0 cm high. This is approximately equivalent to a surface application of 2.8 and 1.4 kg active ingredient per hectare cultivated to a depth of 5 cm. Seeds of the species listed below were sown in the treated soil, one species per pan, watered and placed in a controlled environment room (22° C.; 65-85% relative humidity and 14 hours artificial illumination at 17,000 lux) for 21 days.
(§8) The plants were then visually assessed for any growth regulatory or herbicidal effects. All differences from an untreated control were scored on a scale from 0-100, where 0 signifies no effect and 100 signifies complete suppression.
(§9) The results are shown in the following table where I stands for soil incorporation and II for surface spray.

[21] = tested on: Cotton; assay: Soil incorporation (I), cotton; settings: I soil incorporation 6.5 ppm, 21 days, 0=no effect, 100=complete suppression
Description: as §6, §7, §8, §9

[22] = tested on: Chickweed; assay: Soil incorporation (I), chickweed; settings: I soil incorporation 6.5 ppm, 21 days, 0=no effect, 100=complete suppression
Description: as §6, §7, §8, §9

[23] = tested on: Linseed (Linum usitatissimum); assay: Post-emergence foliar spray, herbicidal/growth regulant response, linseed; settings: 168 h, foliar spray 11.2 kg/ha, 7 days, 0=no effect, 100=complete kill, read-out: herbicidal or growth regulant response index
Summary of the method: as §5

[24] = tested on: Fathen; assay: Soil incorporation (I), fathen; settings: I soil incorporation 6.5 ppm, 21 days, 0=no effect, 100=complete suppression
Description: as §6, §7, §8, §9

[25] = tested on: Mustard (Sinapis alba); assay: Post-emergence foliar spray, herbicidal/growth regulant response, mustard; settings: 168 h, foliar spray 11.2 kg/ha, 7 days, 0=no effect, 100=complete kill, read-out: herbicidal or growth regulant response index
Summary of the method: as §5

[26] = tested on: Peas (Pisum sativum); assay: Post-emergence foliar spray, herbicidal/growth regulant response, peas; settings: Lathyrus oleraceus, 168 h, foliar spray 11.2 kg/ha, 7 days, 0=no effect, 100=complete kill, read-out: herbicidal or growth regulant response index
Summary of the method: as §5

[27] = tested on: French beans (Phaseolus vulgaris); assay: Post-emergence foliar spray, herbicidal/growth regulant response, French beans; settings: foliar spray 11.2 kg/ha, 7 days, 0=no effect, 100=complete kill
Procedure: Seeds of the plant species listed below were sown in anodised aluminium pans, 19 cm long×9.5 cm wide×5 cm deep, containing John Innes I potting compost. They were then watered and placed in a controlled environment room (22° C.; 65-85% relative humidity; 14 hours per day artificial illumination at 13,000 lux). Fourteen days after sowing, the seedlings received a foliar spray of a compound listed below, formulated as a solution in 1:1 by volume aqueous acetone. The concentration of active ingredient and volume of application were adjusted so as to be equivalent to a rate of 11.2 kg/ha in 450 liters per hectare. After seven days growth in the controlled environment room, the plants were visually assessed for any herbicidal or growth regulant response. All differences from the untreated control were scored according to an index where 0=no effect and 100=complete kill.
The product of Example 95 was tested according to the procedure of Examples 49-55.

[28] = tested on: Carrot; assay: Soil incorporation (I), carrot; settings: I soil incorporation 6.5 ppm, 21 days, 0=no effect, 100=complete suppression
Description: as §6, §7, §8, §9

[29] = tested on: Tomato; assay: Soil incorporation (I), tomato; settings: I soil incorporation 6.5 ppm, 21 days, 0=no effect, 100=complete suppression
Description: as §6, §7, §8, §9

[30] = soil incorporation 130 ppm, 100=complete kill/suppression

`CS(=O)(=O)N(CC#N)c1ccc(Cl)c(Cl)c1` [Example 44, N-cyanomethyl-3,4-dichloro-methanesulphonanilide] was tested, and the pest or weed control at 26 µg/mL [1] was 5%, the pest or weed control at 26 µg/mL [2] was 20% and the “growth regulatory or herbicidal effect score” value [3] was 80. It also gave a plant injury at 26 µg/mL [4] of 5%, a pest or weed control at 26 µg/mL [5] of 40% and a plant injury at 26 µg/mL [6] of 60%. For the same compound, the “growth regulatory or herbicidal effect score” value [7] was 0, the pest or weed control at 26 µg/mL [8] was 0% and the “growth regulatory or herbicidal effect score” value [9] was 0. For the same compound, the “growth regulatory or herbicidal effect score” value [10] was 0, the “growth regulatory or herbicidal effect score” value [11] was 0 and the “growth regulatory or herbicidal effect score” value [12] was 0. For the same compound, the “growth regulatory or herbicidal effect score” value [13] was 0, the “growth regulatory or herbicidal effect score” value [14] was 0 and the “growth regulatory or herbicidal effect score” value [15] was 0. For the same compound, the “growth regulatory or herbicidal effect score” value [16] was 100.
For `CCOC(=O)C(CC)N(c1c(C)cccc1C)S(C)(=O)=O` (centres unmarked) [Example 95], the pest or weed control at 26 µg/mL [1] was 90%, the pest or weed control at 130 µg/mL [1, 30] was 100% and the pest or weed control at 26 µg/mL [2] was 0%. The pest or weed control at 130 µg/mL [2, 30] was 80%, the plant injury at 11200 g/ha [17] was 20% and the pest or weed control at 11200 g/ha [18] was 15%. For the same compound, the plant injury at 11200 g/ha [19] was 100%, the plant injury at 26 µg/mL [4] was 50% and the plant injury at 130 µg/mL [4, 30] was 100%. The pest or weed control at 26 µg/mL [5] was 90%, the pest or weed control at 130 µg/mL [5, 30] was 100% and the plant injury at 26 µg/mL [6] was 0%. The plant injury at 130 µg/mL [6, 30] was 100%, the “growth regulatory or herbicidal effect score” value [20] was 50 and the “growth regulatory or herbicidal effect score” value [21] was 5. The pest or weed control at 26 µg/mL [8] was 20%, the pest or weed control at 130 µg/mL [8, 30] was 30% and the “growth regulatory or herbicidal effect score” value [22] was 90. The pest or weed control at 11200 g/ha [23] was 25%, the “growth regulatory or herbicidal effect score” value [24] was 100 and the pest or weed control at 11200 g/ha [25] was 100%. The pest or weed control at 11200 g/ha [26] was 15%, the “herbicidal or growth regulant response index” value [27] was 100 and the “growth regulatory or herbicidal effect score” value [28] was 0. The “growth regulatory or herbicidal effect score” value [29] was 90.
